ChEMBL document CHEMBL1143953, “Novel 2-phenylquinolin-7-yl-derived imidazo[1,5-a]pyrazines as potent insulin-like growth factor-I receptor (IGF-IR) inhibitors” (Bioorg Med Chem, 2008)

Tests used:
[1] = molecular target: Cytochrome P450 3A4 (Homo sapiens, UniProt P08684); assay: Inhibition of CYP3A4; assay type: ADME
[2] = molecular target: Insulin-like growth factor 1 receptor (Homo sapiens, UniProt P08069)
Sequence of Insulin-like growth factor 1 receptor (P08069 31-736 limits assumed): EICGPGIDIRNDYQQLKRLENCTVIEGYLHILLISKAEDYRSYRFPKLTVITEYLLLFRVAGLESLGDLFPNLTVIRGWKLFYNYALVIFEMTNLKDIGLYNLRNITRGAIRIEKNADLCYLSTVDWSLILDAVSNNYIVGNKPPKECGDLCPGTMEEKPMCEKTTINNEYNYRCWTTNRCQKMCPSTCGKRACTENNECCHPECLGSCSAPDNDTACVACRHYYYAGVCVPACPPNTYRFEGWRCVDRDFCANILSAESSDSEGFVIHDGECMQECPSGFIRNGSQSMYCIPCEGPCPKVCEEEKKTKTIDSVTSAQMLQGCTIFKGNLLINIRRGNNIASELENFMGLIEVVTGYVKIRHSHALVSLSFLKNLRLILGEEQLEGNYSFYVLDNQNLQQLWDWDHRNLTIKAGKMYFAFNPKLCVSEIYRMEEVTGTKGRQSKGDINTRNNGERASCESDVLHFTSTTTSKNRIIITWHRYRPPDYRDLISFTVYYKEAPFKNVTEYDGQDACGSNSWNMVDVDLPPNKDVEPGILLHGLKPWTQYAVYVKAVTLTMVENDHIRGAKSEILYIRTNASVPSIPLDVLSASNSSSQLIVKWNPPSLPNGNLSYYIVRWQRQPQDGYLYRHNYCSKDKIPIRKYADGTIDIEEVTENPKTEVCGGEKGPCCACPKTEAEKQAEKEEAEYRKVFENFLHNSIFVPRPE
Sequence of Insulin-like growth factor 1 receptor (P08069 741-1367 limits assumed): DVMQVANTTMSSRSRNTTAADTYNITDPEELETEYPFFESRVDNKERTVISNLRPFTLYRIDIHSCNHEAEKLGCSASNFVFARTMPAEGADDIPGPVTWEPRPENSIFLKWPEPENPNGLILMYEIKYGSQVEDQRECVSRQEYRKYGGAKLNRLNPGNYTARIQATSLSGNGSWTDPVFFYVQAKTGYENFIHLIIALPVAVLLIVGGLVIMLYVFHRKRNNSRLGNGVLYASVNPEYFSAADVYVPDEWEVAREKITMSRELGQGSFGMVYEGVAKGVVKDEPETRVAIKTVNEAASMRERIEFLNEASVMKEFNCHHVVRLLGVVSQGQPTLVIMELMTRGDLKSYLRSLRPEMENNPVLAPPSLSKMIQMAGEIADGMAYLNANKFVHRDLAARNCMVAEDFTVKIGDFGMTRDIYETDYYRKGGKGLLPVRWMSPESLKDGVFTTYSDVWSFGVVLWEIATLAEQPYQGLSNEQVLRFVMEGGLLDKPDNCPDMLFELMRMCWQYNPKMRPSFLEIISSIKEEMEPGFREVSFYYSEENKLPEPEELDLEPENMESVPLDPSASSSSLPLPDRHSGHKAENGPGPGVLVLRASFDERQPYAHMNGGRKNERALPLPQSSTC
Description: Inhibition of human recombinant full length IGF1R expressed in mouse 3T3 cells

Sequence of Cytochrome P450 3A4 (P08684 whole entry): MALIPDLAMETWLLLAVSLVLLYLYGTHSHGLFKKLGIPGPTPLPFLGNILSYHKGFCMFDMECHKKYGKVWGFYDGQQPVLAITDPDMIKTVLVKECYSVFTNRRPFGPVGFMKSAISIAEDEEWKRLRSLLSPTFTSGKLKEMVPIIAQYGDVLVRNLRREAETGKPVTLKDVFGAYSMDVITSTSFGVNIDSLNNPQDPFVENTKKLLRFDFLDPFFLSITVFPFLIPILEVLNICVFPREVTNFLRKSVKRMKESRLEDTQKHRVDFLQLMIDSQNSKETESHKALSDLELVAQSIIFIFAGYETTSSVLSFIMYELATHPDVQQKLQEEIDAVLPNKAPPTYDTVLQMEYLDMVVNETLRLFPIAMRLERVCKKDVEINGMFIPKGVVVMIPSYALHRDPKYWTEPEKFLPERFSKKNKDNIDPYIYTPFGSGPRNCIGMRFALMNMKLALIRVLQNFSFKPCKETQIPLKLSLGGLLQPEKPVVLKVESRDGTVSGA

Row | IC50 [1] [µM] | IC50 [2] [µM] | SMILES
1 | 7.5 |  | Nc1nccn2c1c(-c1ccc3ccc(-c4ccccc4)nc3c1)nc2[C@H]1C[C@@H](N2CCCCC2)C1
2 |  | > 10 | Oc1nccn2c(C3CCC3)nc(-c3ccc4ccc(-c5ccccc5)nc4c3)c12
3 | 3.4 |  | Nc1nccn2c(C3CCC3)nc(-c3ccc4ccc(-c5ccccc5)nc4c3)c12
4 | > 20 |  | Nc1nccn2c1c(-c1ccc3ccc(-c4ccccc4)nc3c1)nc2[C@H]1C[C@H](CN2CCOCC2)C1
5 | 12 |  | Nc1nccn2c1c(-c1ccc3ccc(-c4ccccc4)nc3c1)nc2[C@H]1C[C@@H](N2CCOCC2)C1
6 | 17 | 0.042 | Nc1nccn2c1c(-c1ccc3ccc(-c4ccccc4)nc3c1)nc2[C@H]1C[C@H](CN2CCC2)C1
7 | > 20 |  | Nc1nccn2c1c(-c1ccc3ccc(-c4ccccc4)nc3c1)nc2[C@H]1C[C@@H](N2CCC2)C1
